Experiments:
[1] = molecular target: hGYS1 enzyme (recombinant hGYS1/GN1 protein) (Homo sapiens (Human), UniProt P13807); assay: GYS1 coupled enzyme assay (PK/LDH); type: biochemical; conditions: hGYS1/GN1 50 nM, UDP-Glucose 0.8 mM, G6P 1 mM; geometric mean of at least 2 runs
[2] = molecular target: hGYS2 enzyme (recombinant hGYS2/GN1 protein) (Homo sapiens (Human), UniProt P54840); assay: GYS2 coupled enzyme assay (PK/LDH); type: biochemical; conditions: geometric mean of at least 2 assay runs on separate days, read-out: Avg_IC50
Method in brief: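 hGYS2/GN1 200 nM; UDP-Glc 2 mM; glycogen 0.2%; G6P 2 mM; PEP 2 mM, NADH 0.6 mM, PK/LDH 20 U/mL. 50 mM Tris pH 7.5, MgCl2, KCl, BSA, TCEP, 2.5% DMSO. Kinetic A340, 10 min. IC50 = geomean of ≥2 runs.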

[3] = tested on: hGYS1 enzyme / glycogen synthesis in HeLa cells; assay: GYS1 cell based assay (glycogen synthesis, Glucose-glo); design: species or system human; conditions: 24 h incubation, 20 mM glucose, geometric mean of at least 2 runs
Method in brief: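 HeLa cells starved 24 h in medium containing only 1× Glutamax were plated onto compound in medium with 20 mM glucose (1% DMSO final) for 24 h, 37 °C, 5% CO2. Acid lysates were Tris-quenched, glucoamylase-digested (pH 5.3, 1 h, 37 °C) and read by Glucose-glo luminescence. IC50 came from Hill fits, as geometric mean of ≥2 runs.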

hGYS1 enzyme (recombinant hGYS1/GN1 protein), sequence (P13807 whole entry): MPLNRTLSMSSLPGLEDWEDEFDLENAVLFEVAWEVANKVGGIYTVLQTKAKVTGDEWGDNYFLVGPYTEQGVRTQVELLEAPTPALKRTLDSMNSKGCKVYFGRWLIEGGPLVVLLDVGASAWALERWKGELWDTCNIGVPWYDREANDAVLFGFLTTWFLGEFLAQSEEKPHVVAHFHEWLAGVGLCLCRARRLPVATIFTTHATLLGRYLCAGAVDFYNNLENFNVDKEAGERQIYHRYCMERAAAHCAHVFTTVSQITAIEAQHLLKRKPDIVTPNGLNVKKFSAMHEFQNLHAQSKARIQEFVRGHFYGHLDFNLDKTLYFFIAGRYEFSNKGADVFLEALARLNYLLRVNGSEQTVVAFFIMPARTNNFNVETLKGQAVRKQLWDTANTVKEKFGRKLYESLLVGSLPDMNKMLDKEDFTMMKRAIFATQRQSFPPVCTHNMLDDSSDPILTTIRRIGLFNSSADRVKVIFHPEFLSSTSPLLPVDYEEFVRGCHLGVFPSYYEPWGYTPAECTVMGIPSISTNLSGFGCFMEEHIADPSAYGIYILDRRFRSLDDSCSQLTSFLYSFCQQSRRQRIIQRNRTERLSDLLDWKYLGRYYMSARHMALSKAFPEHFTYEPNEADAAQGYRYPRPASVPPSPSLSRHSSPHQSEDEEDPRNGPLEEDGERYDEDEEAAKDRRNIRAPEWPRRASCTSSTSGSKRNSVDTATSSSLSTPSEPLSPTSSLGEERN
hGYS1 enzyme (recombinant hGYS1/GN1 protein), sequence (P46976 whole entry partner): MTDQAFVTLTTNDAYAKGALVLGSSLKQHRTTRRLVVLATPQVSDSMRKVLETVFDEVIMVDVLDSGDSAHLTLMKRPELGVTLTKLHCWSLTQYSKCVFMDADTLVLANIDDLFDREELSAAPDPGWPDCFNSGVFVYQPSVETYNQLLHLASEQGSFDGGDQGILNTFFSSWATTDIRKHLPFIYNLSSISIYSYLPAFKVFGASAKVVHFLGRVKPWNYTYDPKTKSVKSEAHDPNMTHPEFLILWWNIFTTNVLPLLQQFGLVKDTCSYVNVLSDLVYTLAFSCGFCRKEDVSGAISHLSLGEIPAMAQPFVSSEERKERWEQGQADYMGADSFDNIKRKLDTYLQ
hGYS2 enzyme (recombinant hGYS2/GN1 protein), sequence (P54840 whole entry): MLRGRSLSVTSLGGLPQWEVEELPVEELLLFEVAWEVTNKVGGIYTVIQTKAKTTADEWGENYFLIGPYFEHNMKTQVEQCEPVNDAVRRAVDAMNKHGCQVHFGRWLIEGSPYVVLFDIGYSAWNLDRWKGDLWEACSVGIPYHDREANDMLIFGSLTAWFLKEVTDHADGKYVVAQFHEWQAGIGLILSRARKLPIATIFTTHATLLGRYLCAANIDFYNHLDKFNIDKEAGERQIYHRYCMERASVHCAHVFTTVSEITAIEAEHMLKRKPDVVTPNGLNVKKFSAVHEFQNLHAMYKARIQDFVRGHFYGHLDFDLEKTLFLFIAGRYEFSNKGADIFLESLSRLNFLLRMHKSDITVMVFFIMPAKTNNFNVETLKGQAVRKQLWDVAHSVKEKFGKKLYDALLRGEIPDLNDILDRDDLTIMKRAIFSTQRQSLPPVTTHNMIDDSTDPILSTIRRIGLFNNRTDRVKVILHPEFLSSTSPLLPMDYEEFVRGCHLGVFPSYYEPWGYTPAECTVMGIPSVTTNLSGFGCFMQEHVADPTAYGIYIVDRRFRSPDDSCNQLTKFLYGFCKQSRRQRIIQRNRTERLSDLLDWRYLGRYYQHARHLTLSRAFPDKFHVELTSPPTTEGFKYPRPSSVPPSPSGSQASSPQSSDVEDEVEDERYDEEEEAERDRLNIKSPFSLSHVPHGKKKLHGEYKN
hGYS2 enzyme (recombinant hGYS2/GN1 protein), sequence (P46976 whole entry partner): as the sequence (P46976 whole entry partner) above

Row | Structure (SMILES) | IC50 [1] | IC50 [2] | IC50 ([3]; Homo sapiens, HeLa, 24 h) | IC50 [3]
1 | C[C@@H](NC(=O)N(C)C)C(=O)N1C[C@H](F)C[C@H]1C(=O)N[C@@H](c1ccccc1)c1ccc(C2CC2)c(F)n1 [Compound 311, (2S,4R)-N-[(S)-(5-cyclopropyl-6-fluoropyridin-2-yl)(phenyl)methyl]-1-[(2R)-2-[(dimethylcarbamoyl)amino]propanoyl]-4-fluoropyrrolidine-2-carboxamide] | 0.127 µM | > 100 µM | 2.1 µM | 
2 | CC(C)c1ccc([C@@H](NC(=O)[C@@H]2C[C@@H](F)CN2C(=O)Cc2[nH]nnc2C(F)(F)F)c2ccccc2)nc1 [Compound 268, (2S,4R)-4-fluoro-N-[(S)-phenyl[5-(propan-2-yl)pyridin-2-yl]methyl]-1-{2-[4-(trifluoromethyl)-1H-1,2,3-triazol-5-yl]acetyl}pyrrolidine-2-carboxamide] | 0.018 µM | > 100 µM | 0.83 µM | 
3 | CC(C)c1ccc([C@@H](NC(=O)[C@@H]2C[C@@H](F)CN2C(=O)C(C)c2cnn[nH]2)c2ccccc2)cc1F (single isomer, unassigned) [Compound 769, (2S,4R)-4-fluoro-N-[(S)-[3-fluoro-4-(propan-2-yl)phenyl](phenyl)methyl]-1-[(2R) or (2S)-2-(1H-1,2,3-triazol-5-yl)propanoyl]pyrrolidine-2-carboxamide] | 0.022 µM | > 100 µM | 0.29 µM | 
4 | CC1(c2ccc([C@@H](NC(=O)[C@@H]3C[C@@H](F)CN3C(=O)Cn3nnc4ccccc43)c3ccccc3)nc2F)CC1 [Compound 594, (2S,4R)-1-[2-(1H-1,2,3-benzotriazol-1-yl)acetyl]-4-fluoro-N-[(S)-[6-fluoro-5-(1-methylcyclopropyl)pyridin-2-yl](phenyl)methyl] pyrrolidine-2-carboxamide] | 0.05 µM | > 100 µM | 0.72 µM | 
5 | Cc1cnc(CC(=O)N2C[C@H](F)C[C@H]2C(=O)N[C@@H](c2ccccc2)c2ccc(C3CC(F)(F)C3)c(F)n2)o1 [Compound 509, (2S,4R)-N-[(S)-[5-(3,3-difluorocyclobutyl)-6-fluoropyridin-2-yl](phenyl)methyl]-4-fluoro-1-[2-(5-methyl-1,3-oxazol-2-yl)acetyl]pyrrolidine-2-carboxamide] | 0.008 µM | > 100 µM | 0.18 µM | 
6 | CC(C(=O)N1C[C@H](F)C[C@H]1C(=O)N[C@@H](c1ccccc1)c1ccc(C2(C)CC2)c(F)n1)n1cnc2ccccc21 (single isomer, unassigned) [Compound 586, (2S,4R)-1-((S) or (R)-2-(1H-benzo[d]imidazol-1-yl)propanoyl)-4-fluoro-N—((S)-(6-fluoro-5-(1-methylcyclopropyl)pyridin-2-yl)(phenyl)methyl)pyrrolidine-2-carboxamide] | 0.01 µM | > 100 µM |  | 0.15 µM
7 | CCn1ncc(NCC(=O)N2C[C@H](F)C[C@H]2C(=O)N[C@@H](c2ccccc2)c2ccc(C3CC3)c(F)c2)n1 [Compound 470, (2S,4R)-N-[(S)-(4-cyclopropyl-3-fluorophenyl)(phenyl)methyl]-1-{2-[(2-ethyl-2H-1,2,3-triazol-4-yl)amino]acetyl}-4-fluoropyrrolidine-2-carboxamide] | 0.082 µM | > 100 µM | 0.96 µM | 
8 | CN1C(=O)C(CC(=O)N2C[C@H](F)C[C@H]2C(=O)N[C@@H](c2ccccc2)c2ccc(C3CC3)c(F)c2)c2ccccc21 (stereo partly drawn) [Compound 455, (2S,4R)-N-[(S)-(4-cyclopropyl-3-fluorophenyl)(phenyl)methyl]-4-fluoro-1-[2-(1-methyl-2-oxo-2,3-dihydro-1H-indol-3-yl)acetyl]pyrrolidine-2-carboxamide] | 0.291 µM | > 100 µM | 3.62 µM | 
9 | CC1(c2ccc([C@@H](NC(=O)[C@@H]3C[C@@H](F)CN3C(=O)COC(=O)N3CCN(CC4CC4)CC3)c3ccccc3)cc2F)CC1 [Compound 584, 2-[(2S,4R)-4-fluoro-2-{[(S)-[3-fluoro-4-(1-methylcyclopropyl)phenyl](phenyl)methyl]carbamoyl}pyrrolidin-1-yl]-2-oxoethyl 4-(cyclopropylmethyl) piperazine-1-carboxylate] | 0.104 µM | > 91.8 µM | 4.07 µM | 
10 | CC(C)c1ccc([C@@H](NC(=O)[C@@H]2C[C@@H](F)CN2C(=O)Cn2ccnc2)c2ccccc2)cc1F [Compound 380, (2S,4R)-4-fluoro-N-[(S)-[3-fluoro-4-(propan-2-yl)phenyl](phenyl)methyl]-1-[2-(1H-imidazol-1-yl)acetyl]pyrrolidine-2-carboxamide] | 0.047 µM | > 100 µM | 0.45 µM | 
11 | CC(C)c1ccc([C@@H](NC(=O)[C@@H]2C[C@@H](F)CN2C(=O)CN2CC(=O)N(C)CC2=O)c2ccccc2)cc1F [Compound 339, (2S,4R)-4-fluoro-N-[(S)-[3-fluoro-4-(propan-2-yl)phenyl](phenyl)methyl]-1-[2-(4-methyl-2,5-dioxopiperazin-1-yl)acetyl]pyrrolidine-2-carboxamide] | 0.018 µM | > 100 µM | 0.31 µM | 
12 | CC1(c2ccc([C@H](NC(=O)[C@@H]3C[C@@H](F)CN3C(=O)Cc3n[nH]c4ccccc34)c3ccccc3)nc2F)CC1 [Compound 590, (2S,4R)-4-fluoro-N-[(R)-[6-fluoro-5-(1-methylcyclopropyl)pyridin-2-yl](phenyl)methyl]-1-[2-(1H-indazol-3-yl)acetyl]pyrrolidine-2-carboxamide] | 2.55 µM | > 100 µM | 23.4 µM | 
13 | CCC(C)c1ccc(C(NC(=O)[C@@H]2C[C@@H](F)CN2C(=O)Cc2cnn[nH]2)c2ccccc2)cc1F (single isomer, unassigned) [Compound 677, (2S,4R)-N-[(S) or (R)-{4-[(2R) or (2S)-butan-2-yl]-3-fluorophenyl} (phenyl)methyl]-4-fluoro-1-[2-(1H-1,2,3-triazol-5-yl)acetyl]pyrrolidine-2-carboxamide] | 0.051 µM | > 100 µM |  | 0.99 µM
14 | Cc1nccc(NCC(=O)N2C[C@H](F)C[C@H]2C(=O)N[C@@H](c2ccccc2)c2ccc(C(C)C)c(F)n2)n1 [Compound 404, (2S,4R)-4-fluoro-N-[(S)-[6-fluoro-5-(propan-2-yl)pyridin-2-yl](phenyl)methyl]-1-{2-[(2-methylpyrimidin-4-yl)amino]acetyl} pyrrolidine-2-carboxamide] | 0.006 µM | > 100 µM | 0.07 µM | 
15 | CC(C)c1ccc([C@@H](NC(=O)[C@@H]2C[C@@H](F)CN2C(=O)C(C)n2ccnc2)c2ccccc2)cc1F (single isomer, unassigned) [Compound 768, (2S,4R)-4-fluoro-N-[(S)-[3-fluoro-4-(propan-2-yl)phenyl](phenyl)methyl]-1-[(2R) or (2S)-2-(1H-imidazol-1-yl)propanoyl]pyrrolidine-2-carboxamide] | 0.121 µM | > 100 µM |  | 1.23 µM
16 | Cc1cc(CC(=O)N2C[C@H](F)C[C@H]2C(=O)N[C@@H](c2ccccc2)c2ccc(C3CC(F)(F)C3)c(F)n2)c[nH]c1=O [Compound 522, (2S,4R)-N-[(S)-[5-(3,3-difluorocyclobutyl)-6-fluoropyridin-2-yl](phenyl)methyl]-4-fluoro-1-[2-(5-methyl-6-oxo-1,6-dihydropyridin-3-yl)acetyl]pyrrolidine-2-carboxamide] | 0.005 µM | > 100 µM | 0.45 µM | 
17 | Cn1nc(CC(=O)N2C[C@H](F)C[C@H]2C(=O)N[C@@H](c2ccccc2)c2ccc(C3CC3)c(F)n2)[nH]c1=O [Compound 303, (2S,4R)-N-[(S)-(5-cyclopropyl-6-fluoropyridin-2-yl)(phenyl)methyl]-4-fluoro-1-[2-(1-methyl-5-oxo-4,5-dihydro-1H-1,2,4-triazol-3-yl)acetyl]pyrrolidine-2-carboxamide] | 0.036 µM | > 100 µM | 1.52 µM | 
18 | COCCN1CCN(C(=O)OCC(=O)N2C[C@H](F)C[C@H]2C(=O)N[C@@H](c2ccccc2)c2ccc(C3(C)CC3)c(F)c2)CC1 [Compound 579, 2-[(2S,4R)-4-fluoro-2-{[(S)-[3-fluoro-4-(1-methylcyclopropyl)phenyl](phenyl)methyl]carbamoyl}pyrrolidin-1-yl]-2-oxoethyl 4-(2-methoxyethyl) piperazine-1-carboxylate] | 0.059 µM | > 100 µM | 1.83 µM | 
19 | O=C(N[C@@H](c1ccccc1)c1ccc(C2CC2)c(F)n1)[C@@H]1C[C@@H](F)CN1C(=O)Cn1ccc(C(F)F)n1 [Compound 729, (2S,4R)-N-[(S)-(5-cyclopropyl-6-fluoropyridin-2-yl)(phenyl)methyl]-1-{2-[3-(difluoromethyl)-1H-pyrazol-1-yl]acetyl}-4-fluoropyrrolidine-2-carboxamide] | 0.039 µM | > 100 µM | 0.71 µM | 
20 | Cc1cc(CC(=O)N2C[C@H](F)C[C@H]2C(=O)N[C@@H](c2ccccc2)c2ccc(C(C)C)c(F)n2)c[nH]c1=O [Compound 784, (2S,4R)-4-fluoro-N-[(S)-[6-fluoro-5-(propan-2-yl)pyridin-2-yl](phenyl)methyl]-1-[2-(5-methyl-6-oxo-1,6-dihydropyridin-3-yl)acetyl]pyrrolidine-2-carboxamide] | 0.005 µM | > 100 µM | 0.31 µM | 

From US11814367B2, “Inhibitors of glycogen synthase 1 (GYS1) and methods of use thereof” (Maze Therapeutics, Inc., priority 2021, dated 2023)
